In patent US9963444B2, “N-acylethanolamine hydrolyzing acid amidase (NAAA) inhibitors and their use thereof” (Northeastern University, priority 2014, dated 2018):

target: hNAAA (Homo sapiens (Human), UniProt Q02083); test: Fluorescence-based NAAA inhibition assay with fluorogenic substrate PAMCA; settings: not given;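 note: compound preincubated 15 min at room temperature with hNAAA, then PAMCA added at 5 µM, reacted 120 min at 37 °C, AMC release read by fluorescence (ex 360, em 460 nm)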
Sequence (Q02083 29-125): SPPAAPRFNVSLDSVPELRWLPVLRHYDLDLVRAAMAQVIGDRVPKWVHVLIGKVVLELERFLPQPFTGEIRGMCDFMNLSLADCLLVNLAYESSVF
Sequence (Q02083 126-359): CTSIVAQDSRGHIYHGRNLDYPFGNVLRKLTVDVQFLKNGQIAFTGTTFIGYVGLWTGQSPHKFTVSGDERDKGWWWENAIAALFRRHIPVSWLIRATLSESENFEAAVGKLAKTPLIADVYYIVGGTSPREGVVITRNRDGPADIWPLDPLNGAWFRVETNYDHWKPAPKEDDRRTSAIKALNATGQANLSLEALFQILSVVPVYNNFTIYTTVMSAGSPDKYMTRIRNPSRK

IC50 [µM] | SMILES
0.01 to 0.1 | COc1ncccc1-c1cc(Oc2ccccc2)ccc1COC1CN(C#N)C1 [Example 91, 3-((2-(2-Methoxypyridin-3-yl)-4-phenoxybenzyl)oxy)azetidine-1-carbonitrile]
0.01 to 0.1 | Cc1noc(C)c1-c1ccc(C(OC2CN(C#N)C2)c2ccccc2)cc1 (centres unmarked) [Example 101, 3-((4-(3,5-Dimethylisoxazol-4-yl)phenyl)(phenyl)methoxy)azetidine-1-carbonitrile]
0.01 to 0.1 | N#CN1CC(OCc2ccc(-c3cccnc3)cc2)C1 [Example 72, 3-((4-(Pyridin-3-yl)benzyl)oxy)azetidine-1-carbonitrile]
0.01 to 0.1 | COc1ccc(-c2ccc(COC3CN(C#N)C3)cc2)cn1 [Example 73, 3-((4-(6-Methoxypyridin-3-yl)benzyl)oxy)azetidine-1-carbonitrile]
0.01 to 0.1 | COc1ccccc1-c1cc(Oc2ccccc2)ccc1COC1CN(C#N)C1 [Example 88, 3-((2′-Methoxy-5-phenoxy-[1,1′-biphenyl]-2-yl)methoxy)azetidine-1-carbonitrile]
0.01 to 0.1 | N#CN1CC(OCc2ccc(-c3cccc(OCc4ccccc4)c3)cc2)C1 [Example 85, 3-((3′-(Benzyloxy)-[1,1′-biphenyl]-4-yl)methoxy)azetidine-1-carbonitrile]
0.01 to 0.1 | N#CN1CC(OCc2ccc(Oc3ccccc3)cc2-c2ccccc2)C1 [Example 87, 3-((5-Phenoxy-[1,1′-biphenyl]-2-yl)methoxy)azetidine-1-carbonitrile]
0.01 to 0.1 | COc1ccc(-c2cc(Oc3ccccc3)ccc2COC2CN(C#N)C2)cc1 [Example 90, 3-((4′-Methoxy-5-phenoxy-[1,1′-biphenyl]-2-yl)methoxy)azetidine-1-carbonitrile]
0.01 to 0.1 | N#CN1CC(OCc2ccc(OC(c3ccc(F)cc3)c3ccc(F)cc3)cc2Br)C1 [Example 94, 3-((4-(Bis(4-fluorophenyl)methoxy)-2-bromobenzyl)oxy)azetidine-1-carbonitrile]
0.01 to 0.1 | COc1cccc(-c2ccc(COC3(C)CN(C#N)C3)cc2)c1 [Example 95, 3-((3′-Methoxy-[1,1′-biphenyl]-4-yl)methoxy)-3-methylazetidine-1-carbonitrile]
0.01 to 0.1 | N#CN1CC(OCc2ccc(-c3ccc4c(c3)OCCO4)cc2)C1 [Example 84, 3-((4-(2,3-Dihydrobenzo[b][1,4]dioxin-6-yl)benzyl)oxy)azetidine-1-carbonitrile]
0.01 to 0.1 | CN(Cc1ccc(-c2ccccc2)cc1)C1CN(C#N)C1 [Example 103, 3-(([1,1′-Biphenyl]-4-ylmethyl)(methyl)amino)azetidine-1-carbonitrile]
0.01 to 0.1 | COc1cccc(-c2ccc(COC3(c4ccccc4)CN(C#N)C3)cc2)c1 [Example 96, 3-((3′-Methoxy-[1,1′-biphenyl]-4-yl)methoxy)-3-phenylazetidine-1-carbonitrile]
0.01 to 0.1 | COc1cccc(-c2ccc(COC3CN(C#N)C3)c(C(F)(F)F)c2)c1 [Example 79, 3-((3′-Methoxy-3-(trifluoromethyl)-[1,1′-biphenyl]-4-yl)methoxy)azetidine-1-carbonitrile]
0.01 to 0.1 | COc1cccc(-c2ccc(COC3CN(C#N)C3)cc2)c1OC [Example 69, 3-((2′,3′-Dimethoxy-[1,1′-biphenyl]-4-yl)methoxy)azetidine-1-carbonitrile]
0.01 to 0.1 | N#CN1CC(OCc2ccc(-c3ccc(F)cc3)cc2)C1 [Example 77, 3-((4′-Fluoro-[1,1′-biphenyl]-4-yl)methoxy)azetidine-1-carbonitrile]
0.01 to 0.1 | COc1cccc(-c2ccc(C3(COC4CN(C#N)C4)CC3)cc2)c1 [Example 82, 3-((1-(3′-Methoxy-[1,1′-biphenyl]-4-yl)cyclopropyl)methoxy)azetidine-1-carbonitrile]
0.01 to 0.1 | COc1cccc(OC)c1-c1ccc(COC2CN(C#N)C2)cc1 [Example 83, 3-((2′,6′-Dimethoxy-[1,1′-biphenyl]-4-yl)methoxy)azetidine-1-carbonitrile]
0.11 to 1 | N#Cc1ncc(OCCCCCCc2ccccc2)cn1 [Example 115, 5-((6-phenylhexyl)oxy)pyrimidine-2-carbonitrile]

SMILES | IC50 [µM]
S=C=NCCCCCCCCCCc1ncccn1 [Example 20, 2-(10-Isothiocyanatodecyl)pyrimidine] | 0.01 to 0.1
S=C=NCCCCCCCCCCc1ccccn1 [Example 18, 2-(10-Isothiocyanatodecyl)pyridine] | 0.01 to 0.1
S=C=NCCCOCc1cccc(-c2ccccc2)c1 [Example 24, 3-((3-Isothiocyanatopropoxy)methyl)-1,1′-biphenyl] | 0.01 to 0.1
COc1ccc(-c2ccc(CO[C@H]3C[C@@H](N=C=S)C3)c(F)c2)cc1OC [Example 40, 3-Fluoro-4-(((1S,3S)-3-isothiocyanatocyclobutoxy)methyl)-3′,4′-dimethoxy-1,1′-biphenyl] | 0.01 to 0.1
S=C=NCCOCCOCCOCc1ccccc1 [Example 23, ((2-(2-(2-Isothiocyanatoethoxy)ethoxy)ethoxy)methyl)benzene] | 0.01 to 0.1
S=C=NCCCOCc1ccc(-c2ccccc2)cc1 [Example 25, 4-((3-Isothiocyanatopropoxy)methyl)-1,1′-biphenyl] | 0.01 to 0.1
S=C=NC[C@H]1C[C@@H](OCc2ccc(-c3ccccc3)cc2)C1 [Example 57, 4-(((1S,3S)-3-(isothiocyanatomethyl)cyclobutoxy)methyl)-1,1′-biphenyl] | 0.11 to 1
COc1cccc(-c2ccc(CO[C@H]3C[C@@H](N=C=S)C3)cc2)c1 [Example 35, 4′-(((1S,3S)-3-isothiocyanatocyclobutoxy)methyl)-3-methoxy-1,1′-biphenyl] | 0.01 to 0.1
S=C=NCCCCCCCCCCCc1ccccc1 [Example 21, (11-Isothiocyanatoundecyl)benzene] | 0.01 to 0.1
Fc1cc(-c2ccc3c(c2)OCO3)ccc1CO[C@H]1C[C@@H](N=C=S)C1 [Example 39, 5-(3-Fluoro-4-(((1S,3S)-3-isothiocyanatocyclobutoxy)methyl)phenyl)benzo[d][1,3]dioxole] | 0.01 to 0.1
COc1ccc(-c2ccc(O[C@H]3C[C@H](N=C=S)C3)cc2)cc1F [Example 51, 3-Fluoro-4′-((1R,3R)-3-isothiocyanatocyclobutoxy)-4-methoxy-1,1′-biphenyl] | 0.01 to 0.1
Cc1ccc(-c2ccc(CO[C@H]3C[C@@H](N=C=S)C3)cc2)cc1 [Example 29, 4-(((1S,3S)-3-Isothiocyanatocyclobutoxy)methyl)-4′-methyl-1,1′-biphenyl] | 0.01 to 0.1

same assay, conditions: read-out: NAAA Inhibition IC50 μM; purified hNAAA, PAMCA 5 μM, pH 4.5

SMILES | IC50 [µM]
Fc1cc(-c2cccc(OCc3ccccc3)c2)ccc1COC1CC(N=C=S)C1 [Example 48, 3′-(Benzyloxy)-3-fluoro-4-(((1R,3R)-3-isothiocyanatocyclobutoxy)methyl)-1,1′-biphenyl] | 0.01 to 0.1
S=C=NCCN1CCN(Cc2ccccc2)CC1 [Example 9, 1-Isothiocyanato-2-(4-benzylpiperazino)ethane] | > 1
S=C=NCc1ccc(CN2CCOCC2)cc1 [Example 12, 4-(Morpholinomethyl)benzylisothiocyanate] | > 1
S=C=N[C@@H]1CC[C@@H](OCc2ccc(Br)cc2)C1 [Example 60, 1-Bromo-4-((((1R,3R)-3-isothiocyanatocyclopentyl)oxy)methyl)benzene] | > 1
N#CN1CCC(Oc2ccc(Br)cc2)CC1 [Example 106, 4-(4-Bromophenoxy)piperidine-1-carbonitrile] | > 1
CN(Cc1ccc(-c2ccccc2)cc1)C1CC(N=C=S)C1 [Example 53, (1R,3R)—N-([1,1′-Biphenyl]-4-ylmethyl)-3-isothiocyanato-N-methylcyclobutan-1-amine] | > 1
S=C=Nc1ccc(Cc2ccncc2)cc1 [Example 8, 4-(4-Isothiocyanatobenzyl)pyridine] | > 1
N#C[C@H]1C[C@@H](OCc2ccc(-c3ccccc3)cc2)C1 [Example 108, (1S,3S)-3-([1,1′-biphenyl]-4-ylmethoxy)cyclobutane-1-carbonitrile] | > 1
COc1ccc(-c2ccc(F)c(CO[C@H]3C[C@@H](N=C=S)C3)c2)cc1F [Example 43, 3,4′-Difluoro-3′-(((1S,3S)-3-isothiocyanatocyclobutoxy)methyl)-4-methoxy-1,1′-biphenyl] | > 1
S=C=NCc1ccc(N2CCOCC2)cc1 [Example 10, 4-(4-(Isothiocyanatomethyl)phenyl)morpholine] | > 1
O=C(CCCCCCc1ccc2ccccc2c1)NCCN=C=S [Example 7, N-(2-Isothiocyanatoethyl)-7-(naphthalene-2-yl)heptanamide] | > 1
N#Cc1ncc(F)cc1OCc1ccc(-c2ccccc2)cc1 [Example 113, 3-([1,1′-Biphenyl]-4-ylmethoxy)-5-fluoropicolinonitrile] | > 1
O=C(OCc1ccccc1)N1CCC(CN=C=S)CC1 [Example 13, Benzyl 4-(isothiocyanatomethyl)tetrahydro-1(2H)-pyridinecarboxylate] | > 1
COc1ccc(CCCCCCCCCCN=C=S)cc1 [Example 17, 1-(10-Isothiocyanatodecyl)-4-methoxybenzene] | > 1
FC(F)(F)c1ccccc1CCCCCCCCCCN=C=S [Example 16, 1-(10-Isothiocyanatodecyl)-2-(trifluoromethyl)benzene] | > 1
COc1ccc(-c2ccc(COC3CCC(N=C=S)CC3)cc2)cc1F (centres unmarked) [Example 59, 3-Fluoro-4′-((((1r,4r)-4-isothiocyanatocyclohexyl)oxy)methyl)-4-methoxy-1,1′-biphenyl] | 0.11 to 1
COc1cccc(-c2ccc(CO[C@H]3C[C@H](N=C=S)C3)cc2)c1 [Example 34, 4′-(((1R,3R)-3-isothiocyanatocyclobutoxy)methyl)-3-methoxy-1,1′-biphenyl] | > 1
S=C=NCc1ccc(COc2ccccc2)cc1 [Example 15, 1-(Isothiocyanatomethyl)-4-(phenoxymethyl)benzene] | > 1
S=C=N[C@H]1C[C@@H](OCc2ccc(Oc3ccccc3)cc2-c2ccccc2)C1 [Example 50, 2-(((1S,3S)-3-Isothiocyanatocyclobutoxy)methyl)-5-phenoxy-1,1′-biphenyl] | > 1
